From ChEMBL document CHEMBL3856266, “Melodinine V, an antitumor bisindole alkaloid with selective cytotoxicity from Melodinus henryi” (Bioorg Med Chem Lett, 2016)
Active and inactive are the calls of the source. The rule behind the calls is not given here.

Columns and labels:
[1] = Cytotoxicity against human HT-29 cells assessed as reduction in cell viability after 48 hrs by MTT assay; type: functional, cell-based; settings: HT-29, 48 h
[2] = Cytotoxicity against human PANC1 cells assessed as reduction in cell viability after 48 hrs by MTT assay; type: functional, cell-based; settings: PANC-1, 48 h
[3] = Cytotoxicity against human MCF7 cells assessed as reduction in cell viability after 48 hrs by MTT assay; type: functional, cell-based; settings: MCF7, 48 h
[4] = Cytotoxicity against human HS27 cells assessed as reduction in cell viability up to 100 uM after 48 hrs by MTT assay; type: toxicity, cell-based; settings: hs27, 48 h
[5] = (§1) Antiproliferative activity against human HT-29 cells after 48 hrs by [methyl-3H]-thymidine incorporation assay; type: functional, cell-based; settings: HT-29, 48 h
HT-29 [6] = experiment: as §1; type: functional, cell-based
[7] = Cell cycle arrest in human HT-29 cells assessed as accumulation in G1 phase at 7.4 uM after 24 hrs by propidium iodide staining-based flow cytometry; type: functional
[8] = Cell cycle arrest in human HT-29 cells assessed as accumulation in G1 phase at 9.8 uM after 24 hrs by propidium iodide staining-based flow cytometry; type: functional
HT-29 [9] = experiment: Induction of apoptosis in human HT-29 cells assessed as increase in histone associated DNA fragmentation after 48 hrs by ELISA; type: functional, cell-based

With `CC[C@]12CCCN3CCc4c(n(c5ccccc45)[C@@H](c4ccc(O)c5c4N=C4CC[C@]6(CC)CCCN7CC[C@@]45[C@@H]76)C1)[C@@H]32` the IC50 [1] was 4.9 µM, the IC50 [2] was 28.1 µM and the IC50 [3] was 54.5 µM. The Activity [4] was “Non-Toxic”, the IC50 [5] was 2.3 µM and the inhibition (HT-29 [6]) was “Dose-dependent effect”. For the same molecule, the Activity [7] was “Active”, the Activity [8] was “Active” and the Activity (HT-29 [9]) was “Dose-dependent effect”.
